Assay results from PubChem BioAssay (NCI).
Values joined by “and” are separate entries in the source; they are usually repeats but may differ in a detail not shown here. Equal values may be shown once.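 48-hour exposure; five concentrations; linearly interpolated endpoints. Abbreviation: GI50, concentration required for 50% inhibition of growth. The concentration for full growth arrest is given as TGI.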

Assays:
Experiment in all cases: NCI anticancer screen, dose series, 48 h
MOLT-4 leukemia = test system: MOLT-4 leukemia
ACHN renal = test system: ACHN renal
SF-295 CNS = test system: SF-295 CNS
NCI-H522 lung = test system: NCI-H522 lung
HS 578T breast = test system: HS 578T breast
HOP-62 NSCLC = test system: HOP-62 NSCLC
PC-3 prostate = test system: PC-3 prostate
COLO 205 colon = test system: COLO 205 colon
UACC-62 melanoma = test system: UACC-62 melanoma
786-0 renal = test system: 786-0 renal

| SMILES | GI50 (MOLT-4 leukemia) | TGI (MOLT-4 leukemia) | GI50 (ACHN renal) | TGI (ACHN renal) | GI50 (SF-295 CNS) | TGI (SF-295 CNS) | GI50 (NCI-H522 lung) | TGI (NCI-H522 lung) | GI50 (HS 578T breast) | TGI (HS 578T breast) | GI50 (HOP-62 NSCLC) | TGI (HOP-62 NSCLC) | GI50 (PC-3 prostate) | TGI (PC-3 prostate) | GI50 (COLO 205 colon) | TGI (COLO 205 colon) | GI50 (UACC-62 melanoma) | TGI (UACC-62 melanoma) | TGI (786-0 renal) |
| --- | --- | --- | --- | --- | --- | --- | --- | --- | --- | --- | --- | --- | --- | --- | --- | --- | --- | --- | --- |
| C[C@H](Nc1ccc(C#N)n(C)c1=O)c1cc2cc(Cl)ccc2[nH]c1=O | 18.6 µM | 64.1 µM | 27 µM | > 100 µM | 26.9 µM | 94.3 µM | 29.6 µM | > 100 µM | 13.7 µM | > 100 µM | 25.7 µM | > 100 µM | 13.3 µM | 83.5 µM | 19 µM | 40.2 µM | 20.1 µM | 77.6 µM | – |
| NC(CCc1ccccc1)(C(=O)O)c1ccccc1 (centres undefined) | – | > 100 µM | – | > 100 µM | – | > 100 µM | – | > 100 µM | – | > 100 µM | – | > 100 µM | – | > 100 µM | – | – | – | > 100 µM | > 100 µM |
| Cc1cc(N2CCOCC2)nc(N(CCCNc2ccnc3cc(Cl)ccc23)Cc2ccc3c(c2)OCO3)n1 | 0.598 µM | 2.97 µM | – | – | – | – | – | – | 1.97 µM | 4.61 µM | – | – | 1.62 µM | 3.24 µM | – | – | – | – | – |
| Cn1c2c(c3c(=O)[nH]ncc31)CCc1ccccc1-2 | – | 75 µM | – | 72.4 µM | – | > 100 µM | – | > 100 µM | – | > 100 µM | – | > 100 µM | – | > 100 µM | – | 81.1 µM | – | – | 73.4 µM |
| CN(C)C/C=C(/c1ccc(Br)cc1)c1cccnc1 | – | > 100 µM | – | > 100 µM | – | 63.5 µM | – | > 100 µM | – | > 100 µM | – | > 100 µM | – | > 100 µM | – | 32.4 µM | – | 39.1 µM | > 100 µM |
| CC(C)c1ccc2c(c1)[C@@]1(C)CC[C@H](C)C(C)(C)C1CC2 (some centres undefined) | – | 94.7 µM | – | 32.6 µM | – | 38.3 µM | – | 75.3 µM | – | 47.4 µM | – | 35.2 µM | – | – | – | 42.1 µM | – | 29.9 µM | 33.4 µM |
| NCCCCN | – | > 100 µM | – | > 100 µM | – | > 100 µM | – | > 100 µM | – | – | – | > 100 µM | – | > 100 µM | – | > 100 µM | – | > 100 µM | > 100 µM |
| CCCCCCOC(=O)C(N)Cc1ccc(OC)cc1 (centres undefined) | – | > 100 µM | – | > 100 µM | – | > 100 µM | – | > 100 µM | – | > 100 µM | – | > 100 µM | – | > 100 µM | – | > 100 µM | – | > 100 µM | > 100 µM |
| COc1cccc(/C=N/[N-]C(N)=O)c1[O-].[Cu+2].[OH3+].c1cnc2c(c1)ccc1cccnc12 | – | > 100 µM | – | 40.3 µM | – | 51.2 µM | – | – | – | – | – | 36 µM | – | – | – | 32.5 µM | – | 22.3 µM | 20.2 µM |
| CC(Br)C(=O)c1ccc2cc(Br)c3ccccc3c2c1 (centres undefined) | – | – | – | 31.4 µM | – | 31.4 µM | – | 16.7 µM | – | 62.9 µM | – | 32.4 µM | – | – | – | – | – | 28.7 µM | 11.7 µM |
| CC(C)(C)c1ccc(O)c(Br)c1 | – | > 100 µM | – | > 100 µM | – | > 100 µM | – | > 100 µM | – | > 100 µM | – | > 100 µM | – | > 100 µM | – | > 100 µM | – | > 100 µM | > 100 µM |
| O=P(O)(O)OP(=O)(O)O | – | > 100 µM | – | > 100 µM | – | – | – | > 100 µM | – | > 100 µM | – | > 100 µM | – | > 100 µM | – | > 100 µM | – | > 100 µM | > 100 µM |
| O=S1c2ccccc2N=C(c2ccc3ccccc3c2)CC1c1ccccc1 (centres undefined) | – | > 100 µM | – | 31.8 µM | – | 36.2 µM | – | 34.9 µM | – | – | – | > 100 µM | – | – | – | 40 µM | – | > 100 µM | – |
| C/C(=C\CNc1ncnc2nc(Cl)[nH]c12)CO | – | > 100 µM | – | > 100 µM | – | > 100 µM | – | > 100 µM | – | > 100 µM | – | > 100 µM | – | > 100 µM | – | > 100 µM | – | – | > 100 µM |
| COC(=O)c1c(O)ccc2c1c1c(n2Cc2ccccn2)C(=O)c2ccccc2C1 | – | > 100 µM | – | – | – | > 100 µM | – | – | – | > 100 µM | – | > 100 µM | – | 90.2 µM | – | 28.5 µM | – | > 100 µM | > 100 µM |
| Fc1cc(C2=C[C@H](c3ccc4c(c3)OCO4)NC(=S)N2)c(Cl)cc1Cl | – | > 100 µM | – | > 100 µM | – | > 100 µM | – | > 100 µM | – | > 100 µM | – | > 100 µM | – | 85.8 µM | – | 50.3 µM | – | > 100 µM | > 100 µM |
| CCOC(=O)C(=CNC(Cc1c[nH]c2ccccc12)C(=O)OC)C(=O)OCC (centres undefined) | – | > 100 µM | – | > 100 µM | – | > 100 µM | – | > 100 µM | – | – | – | – | – | – | – | > 100 µM | – | > 100 µM | – |
| COC(=N)C(C)C | – | > 100 µM | – | > 100 µM | – | > 100 µM | – | > 100 µM | – | – | – | > 100 µM | – | – | – | > 100 µM | – | > 100 µM | – |
| CCOC(=O)C(C)OC(=O)c1ccc(C)cc1 (centres undefined) | – | > 100 µM | – | > 100 µM | – | – | – | > 100 µM | – | – | – | – | – | – | – | > 100 µM | – | > 100 µM | – |
| Clc1ccc(NCc2nnc(COc3ccc(OCc4nnc(CNc5ccc(Cl)cc5)o4)c(Cl)c3)o2)cc1 | – | – | – | > 100 µM | – | > 100 µM | – | 46.5 µM | – | > 100 µM | – | > 100 µM | – | > 100 µM | – | 25.9 µM | – | > 100 µM | > 100 µM |
| O=C(CSc1nc2ccc(Cl)cc2c(=O)n1-c1ccccc1)N=Nc1c(O)[nH]c2ccc(F)cc12 | – | 5.56 µM | – | 4.1 µM | – | 14.9 µM | – | 3.86 µM | – | > 27 µM | – | 4.19 µM | – | 6.82 µM | – | 4.81 µM | – | 7.1 µM | 4.45 µM |
| COC1OC(C(=O)CP(=O)(OC)OC)C(OCc2ccccc2)C(OCc2ccccc2)C1OCc1ccccc1 (centres undefined) | – | 32.7 µM and 50.3 µM | – | 29.4 µM and 29.9 µM | – | 28.1 µM and 30.3 µM | – | 29.5 µM and 32.2 µM | – | 63.4 µM and 74.8 µM | – | 32 µM and 32.5 µM | – | 28.1 µM and 28.7 µM | – | 32.7 µM and 33.5 µM | – | 26.6 µM and 28 µM | 31.3 µM and 31.4 µM |
| COc1cc(S(=O)(=O)N/N=C/C=C/c2ccccc2)c(OC)cc1NC(C)=O | – | – | – | > 100 µM | – | > 100 µM | – | > 100 µM | – | > 100 µM | – | > 100 µM | – | > 100 µM | – | 45.8 µM | – | > 100 µM | > 100 µM |
| CC(C)(C)OC(=O)N1C(C2=COc3ccccc3O2)=COc2cccnc21 | – | 7 µM | – | 3.19 µM | – | 3.99 µM | – | 3.49 µM | – | 19.1 µM | – | 3.5 µM | – | 6.04 µM | – | 3.64 µM | – | 3.17 µM | 3.66 µM |
| O=c1oc2c(ccc3occc32)c(N2CCCCC2)c1-c1ccccc1 | – | > 31.7 µM | – | – | – | > 100 µM | – | > 100 µM | – | – | – | > 100 µM | – | – | – | > 100 µM | – | > 100 µM | – |
